Test results published in PMC12477777, “Human exposure to green spaces and monoterpenes: discovery and use of α-pinene metabolites as biomarkers” (Environment international, 2025).

Legend:
[1] = aPM in mouse urine after i.p. injection of (+)-α-pinene or (−)-α-pinene; format: in vivo, mice (C57BL/6); details: for (1R)-(+)-α-Pinene (Average), proportion of aPM in mouse urine / (1S)-(−)-α-Pinene (Average), proportion of aPM in mouse urine: mouse urine collected overnight, 50 mg/kg; for (1R)-(+)-α-Pinene (Average), proportion of aPM in mouse urine: 50 mg/kg i.p. (+)-α-pinene; for (1S)-(−)-α-Pinene (Average), proportion of aPM in mouse urine: 50 mg/kg i.p. (−)-α-pinene; for R/(R+S): mouse urine, enantiomer specificity; for Detection in mouse urine: after exposure to either α-pinene enantiomer
Protocol: Mouse urine was collected after exposures to either (+) or (−) α-pinene to distinguish between metabolites of different enantiomers of α-pinene. Adult male mice (C57BL/6) were intraperitoneally administered with 50 mg/kg body weight of (+)-α-pinene or (−)-α-pinene dissolved in 100 μl sterile saline with 1 % Tween 80.

[2] = Urinary aPM after 4 h greenness (forest) exposure; format: in vivo, human; design: Maximum response: unit not given here; details: for Frequency of occurrence / Maximum response: human urine, greenness exposure; for Proportion (observed) after greenness exposure: share of total aPM response
Protocol: (§1) Briefly, for controlled inhalation experiments, eight healthy volunteers were exposed to α-pinene in a custom-built exposure chamber via inhalation from a 15 ml conical tube, containing approximately 100 μl α-pinene, for a duration of 10 min. Urine samples were collected before exposure (0 h) and 0.5, 1, 2, 3, and 4 h after exposure. […] Urine samples were collected both before (0 h) or 4 h after exposure. After collection, the urine samples were centrifuged and stored at −80 °C before analysis. […] Demographic information, including sex, age and race, can be found in Table S1.
(§2) Briefly, after 1:10 dilution, urine samples were separated using an Acquity I-Class UPLC system with an Acquity Premier CSH C18 UPLC column (Waters, MA) with a gradient comprising 0.1 % formic acid in water as the solvent A and 0.1 % formic acid in acetonitrile as the solvent B. Mass Spectrometry Elevated Energy (MS^E) data were collected using a Waters Synapt XS MS (Waters, MA) with an ESI ion source operated in the negative mode. Subsequent analyses of raw files were performed using UNIFI 1.9 and Progenesis QI 3.0 (both from Waters, MA). To validate LC-MS performance, one quality control (QC) sample, prepared by pooling equal amount of each urine sample, was injected after every ten urine sample injections.
(§3) Relative quantification of aPM was performed based on the peak responses normalized to urinary creatinine levels. Urinary creatinine levels were measured using an Ace Axcel Clinical Chemistry System with ACE Creatinine Reagent from Alfa Wassermann (West Caldwell, NJ). Statistical analyses, including ANOVA and Student’s t-tests, were conducted using SAS 9.4 (SAS Institute, NC) to explore differences in aPM across various time points. […] A threshold for statistical significance was defined as p < 0.05.

[3] = Relative quantification of urinary aPM (UPLC-QTOF-MS, creatinine-normalized) after controlled α-pinene inhalation; format: in vivo, human; details: for Frequency of occurrence (percentage of samples with analyte detected) / Maximum response (highest peak response across all urine samples) / Observed Tmax: human urine after α-pinene inhalation; for Proportion (observed) after α-pinene inhalation: share of total response of 22 aPM, averaged over post-exposure samples
Protocol: as §1, §2, §3

[4] = Kinetic modeling of urinary aPM with a pseudo one-compartment nonlinear mixed-effects model after α-pinene inhalation; format: in vivo, human; details: for F (%), fraction of metabolite generated from absorbed α-pinene: human urine after 10 min α-pinene inhalation, F normalized to the sum of 22 detected metabolites; for Elimination t1/2 / Ka, first-order generation constant / Ke, first-order elimination rate constant: human urine after α-pinene inhalation, pseudo one-compartment model
Description: In this equation, i represents the participant index, j the urine sample index, C the creatinine-normalized peak response, and t the sample collection time ( h).Ka denotes the first-order generation constant ( h^−1 ), and Ke denotes the first-order elimination rate constant h^−1 . F indicates the fraction of specific aPM relative to absorbed α-pinene. The variables D and V refer to the absorbed α-pinene amount and the distribution volume, respectively. Because input data were derived from relative quantification, absolute values of D , V , and F were not available. For simplicity, D and V were fixed at 100 and 1, respectively, and F was normalized relative to the sum of all detected aPM. The error term ε accounts for residual variation.

Row | Molecule | (1R)-(+)-α-Pinene (Average), proportion of aPM in mouse urine [1] | (1S)-(−)-α-Pinene (Average), proportion of aPM in mouse urine [1] | R/(R+S) [1] | Frequency of occurrence [2] | Frequency of occurrence (percentage of samples with analyte detected) [3] | Maximum response (highest peak response across all urine samples) [3] | Observed Tmax [3] | Proportion (observed) after α-pinene inhalation [3] | F (%), fraction of metabolite generated from absorbed α-pinene [4] | Elimination t1/2 [4] | Ka, first-order generation constant [4] | Ke, first-order elimination rate constant [4] | Detection in mouse urine [1] | Maximum response [2] | Proportion (observed) after greenness exposure [2]
1 | CC1(C)C2CC=C(C(=O)OC3OC(C(=O)O)C(O)C(O)C3O)C1C2 (single isomer, unassigned) [aPM3a, Myrtenic acid-GlcA] | 0.0% | 10.0% | 0% | 0.0% | 93.8% | 50629 | 1 h | 3.2% | 2.92 ± 0.94% | 55.8 ± 16.2 min | 1.80 ± 0.67 h⁻¹ | 0.75 ± 0.22 h⁻¹ |  |  | 
2 | CC1(C)C2CC=C(C(=O)OC3OC(C(=O)O)C(O)C(O)C3O)C1C2 (single isomer, unassigned) [aPM3b, Myrtenic acid-GlcA] | 1.6% | 2.7% | 37.5% | 87.5% | 100.0% | 352366 | 1 h |  |  | 36.6 ± 7.8 min | 1.98 ± 0.60 h⁻¹ | 1.13 ± 0.24 h⁻¹ | present in murine samples | 2516 | 17.7%
3 | CC1(C)C2CCC(C(=O)OC3OC(C(=O)O)C(O)C(O)C3O)C1C2 (single isomer, unassigned) [aPM4a, Dihydromyrtenic acid-GlcA] | 0.0% | 5.0% | 0.0% | 6.3% | 89.6% | 72991 | 1 h | 2.4% | 3.19 ± 1.11% | 42.6 ± 13.2 min | 2.12 ± 0.87 h⁻¹ | 0.98 ± 0.30 h⁻¹ |  | 53 | 0.0%
4 | CC1(C)C2CCC(C(=O)OC3OC(C(=O)O)C(O)C(O)C3O)C1C2 (single isomer, unassigned) [aPM4b, Dihydromyrtenic acid-GlcA] | 0.0% | 4.2% | 0.0% | 0.0% | 81.3% | 14109 | 1 h | 1.2% | 1.47 ± 0.63% | 47.4 ± 15.6 min | 1.34 ± 0.47 h⁻¹ | 0.87 ± 0.28 h⁻¹ |  |  | 
5 | CC1(C)C2CCC(C(=O)OC3OC(C(=O)O)C(O)C(O)C3O)C1C2 (single isomer, unassigned) [aPM4c, Dihydromyrtenic acid-GlcA] | 0.0% | 0.1% | 0.0% | 0.0% | 89.6% | 5156 | 1 h | 0.5% | 0.26 ± 0.08% | 90.6 ± 32.4 min | 1.65 ± 0.67 h⁻¹ | 0.46 ± 0.16 h⁻¹ |  |  | 
6 | CC1(C)C2CCC(C(=O)OC3OC(C(=O)O)C(O)C(O)C3O)C1C2 (single isomer, unassigned) [aPM4d, Dihydromyrtenic acid-GlcA] | 0.0% | 0.2% | 0.0% | 68.8% | 97.9% | 183468 | 1 h |  | 13.03 ± 5.57% | 60.6 ± 24 min | 0.73 ± 0.29 h⁻¹ | 0.68 ± 0.27 h⁻¹ | present in murine samples | 7375 | 9.4%
7 | CC1(C)C2CCC(C(=O)OC3OC(C(=O)O)C(O)C(O)C3O)C1C2 (single isomer, unassigned) [aPM4e, Dihydromyrtenic acid-GlcA] | 0.1% | 0.2% | 24.1% | 93.8% | 95.8% | 241782 | 1 h |  | 18.14 ± 6.52% | 59.4 ± 19.8 min | 1.26 ± 0.50 h⁻¹ | 0.70 ± 0.24 h⁻¹ | present in murine samples | 27114 | 67.8%
8 | CC1(C)C2CC1C(OC1OC(C(=O)O)C(O)C(O)C1O)C=C2C(=O)O (single isomer, unassigned) [aPM5a, Myrtenic acid-4-O-GlcA] | 0.0% | 0.1% | 0% | 0.0% | 79.2% | 4787 | 1 h | 0.3% | 0.25 ± 0.09% | 60 ± 22.8 min | 1.64 ± 0.77 h⁻¹ | 0.70 ± 0.27 h⁻¹ |  |  | 
9 | α-Pinene-O-GlcA [aPM2a] |  |  |  |  |  |  | 0.5 h |  | 0.51 ± 0.12% | 33.6 ± 4.8 min |  | 1.23 ± 0.17 h⁻¹ |  |  | 0.9%
